Holding throughout (format): cell-based
The target of assay [1] is T1, mouse olfactory (Molf) CNG channel, α homomultimer (Mus musculus, UniProt Q62398, M2V).
T1 sequence (Q62398 1-664 M2V): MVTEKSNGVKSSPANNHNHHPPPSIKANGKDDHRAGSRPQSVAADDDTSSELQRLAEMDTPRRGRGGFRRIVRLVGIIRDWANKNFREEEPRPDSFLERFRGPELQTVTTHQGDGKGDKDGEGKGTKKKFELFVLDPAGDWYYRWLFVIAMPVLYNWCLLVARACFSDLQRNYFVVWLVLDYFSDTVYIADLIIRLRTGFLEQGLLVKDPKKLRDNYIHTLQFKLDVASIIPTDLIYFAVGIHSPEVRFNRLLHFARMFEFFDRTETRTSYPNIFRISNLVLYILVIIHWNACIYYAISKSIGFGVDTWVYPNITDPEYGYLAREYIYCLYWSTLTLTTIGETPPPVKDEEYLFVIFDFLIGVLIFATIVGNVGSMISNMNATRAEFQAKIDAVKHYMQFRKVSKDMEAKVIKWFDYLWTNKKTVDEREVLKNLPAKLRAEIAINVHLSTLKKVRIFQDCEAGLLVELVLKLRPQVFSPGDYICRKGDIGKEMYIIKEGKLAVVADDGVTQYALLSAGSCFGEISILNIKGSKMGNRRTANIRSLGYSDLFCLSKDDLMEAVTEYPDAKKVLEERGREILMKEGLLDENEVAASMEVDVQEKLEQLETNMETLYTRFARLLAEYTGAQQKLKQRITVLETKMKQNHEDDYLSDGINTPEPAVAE

The target in another assay is T2, Rolf G204W CNG channel (Rattus norvegicus, UniProt Q00195, G204W).
T2 sequence (Q00195 1-664 G204W): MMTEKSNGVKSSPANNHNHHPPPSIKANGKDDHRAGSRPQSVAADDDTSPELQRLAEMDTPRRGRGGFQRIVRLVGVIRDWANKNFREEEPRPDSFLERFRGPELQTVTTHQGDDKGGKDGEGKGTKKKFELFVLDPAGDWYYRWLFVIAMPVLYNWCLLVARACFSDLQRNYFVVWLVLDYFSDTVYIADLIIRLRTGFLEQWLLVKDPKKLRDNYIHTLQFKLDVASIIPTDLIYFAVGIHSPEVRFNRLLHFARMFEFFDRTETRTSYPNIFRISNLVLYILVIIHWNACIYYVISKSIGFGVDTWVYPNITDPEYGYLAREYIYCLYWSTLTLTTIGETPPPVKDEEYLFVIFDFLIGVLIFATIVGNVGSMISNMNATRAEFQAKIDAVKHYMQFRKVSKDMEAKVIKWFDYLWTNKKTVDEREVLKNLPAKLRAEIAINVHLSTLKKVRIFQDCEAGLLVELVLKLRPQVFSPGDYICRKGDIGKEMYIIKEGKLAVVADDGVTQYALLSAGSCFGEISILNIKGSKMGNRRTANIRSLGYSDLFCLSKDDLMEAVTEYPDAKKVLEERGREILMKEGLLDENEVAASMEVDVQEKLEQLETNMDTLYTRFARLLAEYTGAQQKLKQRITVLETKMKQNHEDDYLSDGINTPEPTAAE

Assay [2] addresses T3, rat olfactory (Rolf) CNG channel, α homomultimer (Rattus norvegicus, UniProt Q00195).
T3 sequence (Q00195 1-664): T2 sequence (Q00195 1-664 G204W) with W204G
The conditions noted are these: for Hill coefficient n of cGMP activation: six patches.

The next assay addresses T4, Molf G204E CNG channel (Mus musculus, UniProt Q62398, G204E/M2V).
T4 sequence (Q62398 1-664 M2V/G204E): T1 sequence (Q62398 1-664 M2V) with G204E

[3] abbreviates: read-out: Percent inhibition by tetracaine.

Residue numbers refer to the chain shown, from its start. Read-outs that look alike come from different tables or passages of the source.

On to `CCCCNc1ccc(C(=O)OCCN(C)C)cc1` [Tetracaine, tetracaine], for which the inhibition at 40 µM in assay [1] (setting [3]) came out at 18.8%; on Rolf G204W CNG channel (setting [3]) it was 100%; in assay [2] (setting [3]) it was 10.4%; at Molf G204E CNG channel (setting [3]), 78.3%. For the same compound, the IC50 on Rolf G204W CNG channel is 2.2 µM; in assay [2], 140 µM; on Molf G204E CNG channel it was 10.8 µM.
In the case of `Nc1nc2c(ncn2[C@@H]2O[C@@H]3COP(=O)(O)O[C@H]3[C@H]2O)c(=O)[nH]1` [cGMP], the “I/Imax of cGMP-activated current” value in assay [1] (Molf, 1 μM cGMP, +100 mV) was found to be 0.15; on Molf G204E CNG channel (Molf G204E, 1 μM cGMP, +100 mV) it was 0.15. Moreover, the “Hill coefficient n of cGMP activation” value at Rolf G204W CNG channel (Rolf G204W, averaged six patches, +100 mV) was determined as 1.7; at Rolf G204W CNG channel (Rolf G204W, averaged six patches, −100 mV), 1.7; at Rolf G204W CNG channel (Rolf G204W, single patch, +100 mV), 2.0; on Rolf G204W CNG channel (Rolf G204W, single patch, −100 mV), 2.0; in assay [2] (Rolf, +100 mV), 2.8; in assay [2] (Rolf, −100 mV), 2.8. Also, the EC50 at Rolf G204W CNG channel (read-out: cGMP K1/2 (half-maximal activation), Rolf G204W, +100 mV, averaged data from six patches) was 14 µM; at Rolf G204W CNG channel (read-out: cGMP K1/2, Rolf G204W, single patch, +100 mV), 14 µM; at Rolf G204W CNG channel (read-out: cGMP K1/2, Rolf G204W, single patch, −100 mV), 18 µM.
Regarding diacylglycerol [DAG], the “inhibition of cGMP-activated current by DAG (in words)” value in assay [1] (Molf, 12 μM DAG, saturating cGMP) is given as “only partial inhibition”; in assay [2] (Rolf, 12 μM DAG, saturating cGMP), “only partial inhibition”. For the same compound, the “DAG maximal percent inhibition (INmax)” value in assay [1] (Molf, saturating 100 μM cGMP) worked out at 17%; on Rolf G204W CNG channel (Rolf G204W, 2 mM cGMP) it was 100%; on Molf G204E CNG channel (Molf G204E, saturating 100 μM cGMP), 100%. For the same compound, the “Hill coefficient n of DAG inhibition” value worked out at 0.8 in assay [1] (Molf, saturating 100 μM cGMP) and 3.2 at Rolf G204W CNG channel (Rolf G204W, 2 mM cGMP). Besides, the “decrease of maximal current by DAG” value is reported as 14% in assay [2] (Rolf, 1.5 μM DAG, saturating 100 μM cGMP) and more than 80% at Molf G204E CNG channel (Molf G204E, 1.5 μM DAG, saturating 100 μM cGMP). Besides, the “DAG concentration that fully suppresses cGMP-activated currents” value on Molf G204E CNG channel (Molf G204E, saturating cGMP) is approximately 3 µM.

The values are drawn from publication PMC2231820 (The Journal of General Physiology, 2000).
